From patent publication US9387261B2, “Immunoconjugates targeting CD138 and uses thereof” (priority 2007, dated 2016)
Entries after “also recorded” stand apart in the source; their conditions may differ.

Assays:
[1] = higher; cited from earlier work
[2] = tested on: MOLP-8 human multiple myeloma xenografts; assay: MOLP-8 xenograft mouse experiments A, Part I (single bolus i.v. injection); assay type: in vivo, CB.17 SCID mice; conditions: for effect on tumor growth compared with PBS-treated animals: single i.v. bolus, 250 μg/kg maytansinoid (nBT062 antibody […])
Protocol: In these mice, subcutaneous tumors were established (female CB.17 SCID mice) by inoculation with MOLP-8 cell suspensions. Treatment with a single bolus intravenous injection was conducted when tumor volumes reached an average 113 mm^3. Changes in tumor volume and body weight were monitored twice per week.
Female CB.17 SCID mice, five weeks old, were obtained from Charles River Laboratories.
MOLP-8, a human multiple myeloma cell line, was supplied from ATCC.
Each mouse was inoculated with 1×10^7 MOLP-8 cells subcutaneously into the area under the right shoulder. The total volume was 0.2 ml per mouse, in which the ratio of serum-free medium to matrigel (BD Bioscience, Bedford, Mass.) was 1/1 (v/v). Prior to treatment, the xenograft tumors were monitored daily and were allowed to become established.
Eleven days after tumor cell inoculation, 42 mice were selected based on tumor volumes and body weights. […] The forty-two mice were randomly divided into seven groups (A-G) of six animals each based on tumor volume.
Each of six mice in Group A received 200 μl of PBS as vehicle control.
All agents were intravenously administered as a single bolus injection through a lateral tail vein with a 1 ml syringe fitted with a 27 gauge, ½ inch needle.

MOLP-8 tumor xenografts = assay: Bulky MOLP-8 tumor model, Part II / xenograft mouse experiments B (TGD, log cell kill); assay type: in vivo, SCID mice; conditions: 450 μg/kg dose; mean time to reach 160 mm^3 minus control
Protocol: In a second set of experiments, MOLP-8 cells (1.5×10^7 cells per mouse), suspended in a 50:50 mixture of serum free media and matrigel were injected subcutaneously in the area under the right shoulder in 100 μl. Tumor volumes reached about 80 mm^3 at day 11 and the mean of the controls was about 750 mm^3 at day 25, post cell inoculation. […] Each mouse in the control group (n=6) received 0.2 ml of sterile PBS administered into the lateral tail vein (i.v.) in a bolus injection. All treatment doses were based on conjugated maytansinoid. […] Mice were randomized into eleven groups (n=6) by tumor volume using the LabCat Program. The tumor volumes ranged from 40.0 to 152.5 mm^3. The mice were dosed based on the individual body weight.
Tumor size was measured twice per week in three dimensions using the LabCat System (Tumor Measurement and Tracking, Innovative Programming Associated, Inc., Princeton, N.J.).
In this set of experiments, eighty-five mice were inoculated with MOLP-8 cells (1.5×10^7 cells/mouse) subcutaneously in the right shoulder. […] Sixty-six SCID mice bearing bulky MOLP-8 tumors with a mean tumor volume of about 80 mm^3 were randomized into eleven treatment groups (n=6).

Which “cytotoxicity relative to anti-cancer drugs affecting tubulin polymerization (Vinca alkaloids, taxol)” value [1] does the source give for `COc1cc2cc(c1Cl)N(C)C(=O)C[C@H](OC(=O)[C@H](C)N(C)C(C)=O)[C@]1(C)O[C@H]1[C@H](C)[C@@H]1C[C@@](O)(NC(=O)O1)[C@H](OC)/C=C/C=C(\C)C2` [maytansine] here?
Its value is 200-1000 fold.

Which results are given for “B-B4-SPP-DM1: conjugate of the murine parental antibody B-B4 with DM1 via SPP linker”?
effect on tumor growth compared with PBS-treated animals [2]: marked delay in tumor growth; homogeneity of anti-tumor activity in individual mice ([2]; single i.v. dose 250 μg/kg, FIG. 9): more heterogeneously; also recorded: high binding variation

What does the source list for nBT062?
effect on tumor growth compared with PBS-treated animals [2]: did not cause any significant inhibition of tumor growth; effect on tumor growth compared with PBS-treated animals ([2]; listed as huBT062): no significant impact on tumor growth

With “nBT062-DM1: nBT062 conjugate with DM1, linker not stated; TGD of 18 days matches nBT062-SMCC-DM1” as the molecule, how does the “TGD (days), tumor growth delay” value (MOLP-8 tumor xenografts) read?
The value was 18 days.
